Key:
[1] = target: T1, C5a anaphylatoxin chemotactic receptor 1 (Homo sapiens) (UniProt P21730); test: Tested for the ability to compete with [125I]-CO13 [125I]-Y-F-K-A-Cha-G-L-dF-R) for binding to C5a anaphylatoxin chemotactic receptor of human neutrophil membrane preparations at 30 uM concentration
T1 sequence (whole entry): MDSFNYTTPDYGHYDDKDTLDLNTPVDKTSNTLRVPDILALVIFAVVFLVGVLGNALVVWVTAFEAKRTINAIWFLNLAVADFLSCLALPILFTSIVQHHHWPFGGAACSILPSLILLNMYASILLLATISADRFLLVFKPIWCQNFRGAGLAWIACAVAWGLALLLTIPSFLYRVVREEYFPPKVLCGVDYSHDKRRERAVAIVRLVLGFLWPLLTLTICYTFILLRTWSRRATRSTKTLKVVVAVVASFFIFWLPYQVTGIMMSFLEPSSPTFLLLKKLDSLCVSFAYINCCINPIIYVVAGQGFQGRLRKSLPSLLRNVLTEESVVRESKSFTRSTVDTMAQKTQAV

[2] = target: T2, C5a anaphylatoxin chemotactic receptor 1 (Homo sapiens, UniProt P21730); test: Tested for its ability to compete with [125I]C5a for binding to C5a anaphylatoxin chemotactic receptor of human neutrophil membrane preparations
T2 sequence (P21730 whole entry): T1 sequence (whole entry)

[3] = target: T2, C5a anaphylatoxin chemotactic receptor 1; test: Tested for the ability to compete with [125I]-CO13 ([125I]-Y-F-K-A-Cha-G-L-dF-R) for binding to C5a anaphylatoxin chemotactic receptor from human neutrophil membrane preparations
[4] = target: T1, C5a anaphylatoxin chemotactic receptor 1 (Homo sapiens); test: Tested for […] to evaluate its ability to block C5a induced myeloperoxide (MPO release from neutrophils (for antagonists) or induce MPO release (for agonists)
[5] = target: T1, C5a anaphylatoxin chemotactic receptor 1 (Homo sapiens); test: Inhibition of [125I]C5a binding to C5a anaphylatoxin chemotactic receptor of human neutrophil membrane preparations at 30 uM.
[6] = target: T1, C5a anaphylatoxin chemotactic receptor 1 (Homo sapiens); test: Tested for the ability to compete with [125I]C5a for binding to human C5a anaphylatoxin chemotactic receptor of human neutrophil membrane preparations at 30 uM concentration
[7] = target: T1, C5a anaphylatoxin chemotactic receptor 1 (Homo sapiens); test: Tested for the ability to compete with [125I]-CO13 [125I]-Y-F-K-A-Cha-G-L-dF-R) for binding to C5a anaphylatoxin chemotactic receptor of human neutrophil membrane preparations; conditions: concentration not given here
[8] = target: T2, C5a anaphylatoxin chemotactic receptor 1; test: Tested for the its ability to compete with [125I]-CO13 [125I]-Y-F-K-A-Cha-G-L-dF-R) for binding to C5a anaphylatoxin chemotactic receptor of human neutrophil membrane preparations

SMILES | IC50 [2] [nM] | IC50 [3] [nM] | inhibition [5] [%] | other results
CC(C)c1ccccc1N1CCN(C(=O)[C@@H](CC2CCCCC2)N2C(=O)N[C@H](CCCN=C(N)N)C2=O)CC1 | – | – | – | inhibition [1]: 14%
N=C(N)NCCC[C@H]1NC(=O)N([C@H](CC2CCCCC2)C(=O)N2CCC(c3ccccc3)CC2)C1=O | 400 | 30 | – | Release [4]: 88%
CC(C)[C@H](C(=O)N1CCC2(CCc3ccccc32)CC1)N1C(=O)N[C@H](CCCN=C(N)N)C1=O | – | 1200 | 70 | –
CC(O)[C@H](C(=O)N1CCC2(CCc3ccccc32)CC1)N1C(=O)N[C@H](CCCN=C(N)N)C1=O (stereo partly specified) | – | – | 14 | inhibition [1]: 57%
CSCC[C@H](C(=O)N1CCC2(CCc3ccccc32)CC1)N1C(=O)N[C@H](CCCN=C(N)N)C1=O | – | 3400 | 57 | –
N=C(N)NCCC[C@H]1NC(=O)N(C(CCc2ccccc2)C(=O)N2CCC3(CCc4ccccc43)CC2)C1=O (stereo partly specified) | – | 3000 | 46 | –
N=C(N)NCCC[C@H]1NC(=O)N([C@H](Cc2ccccc2)C(=O)N2CCC3(CCc4ccccc43)CC2)C1=O | 8000 | 800 | – | –
NC(=O)NCCC[C@H]1NC(=O)N([C@H](CC2CCCCC2)C(=O)N2CCC3(CCc4ccccc43)CC2)C1=O | – | – | – | inhibition [1]: 58%
N=C(N)NCCC[C@H]1NC(=O)N([C@H](CC2CCCCC2)C(=O)N2CCN(c3ccccc3)CC2)C1=O | – | 1000 | 66 | –
N=C(N)NCCC[C@H]1NC(=O)N([C@H](CC2CCCCC2)C(=O)N2CCC3(CCc4ccccc43)CC2)C1=O | 300 | 25 | – | Release [4]: 86%
Cc1ccccc1N1CCN(C(=O)[C@@H](CC2CCCCC2)N2C(=O)N[C@H](CCCN=C(N)N)C2=O)CC1 | 350 | 40 | – | Release [4]: 76%
N=C(N)NCCC[C@H]1NC(=O)N([C@@H](C(=O)N2CCC3(CCc4ccccc43)CC2)C(c2ccccc2)c2ccccc2)C1=O | – | – | – | inhibition [6]: 75%
N=C(N)NCCC[C@H]1NC(=O)N([C@H](Cc2cccc3ccccc23)C(=O)N2CCC3(CCc4ccccc43)CC2)C1=O | – | 11000 | 77 | –
N=C(N)NCCC[C@H]1NC(=O)N([C@H](Cc2ccc(F)cc2)C(=O)N2CCC3(CCc4ccccc43)CC2)C1=O | – | 230 | 75 | –
N=C(N)NCCC[C@H]1NC(=O)N([C@H](CC(=O)O)C(=O)N2CCC3(CCc4ccccc43)CC2)C1=O | – | – | 0 | –
Cc1cccc(C)c1N1CCN(C(=O)[C@@H](CC2CCCCC2)N2C(=O)N[C@H](CCCN=C(N)N)C2=O)CC1 | 220 | 40 | – | Release [4]: 78%
CC[C@@H](C)[C@H](C(=O)N1CCC2(CCc3ccccc32)CC1)N1C(=O)N[C@H](CCCN=C(N)N)C1=O | 1200 | 200 | – | Release [4]: 31%
N=C(N)NCCC[C@H]1NC(=O)N([C@H](Cc2ccc3ccccc3c2)C(=O)N2CCC3(CCc4ccccc43)CC2)C1=O | – | 2000 | 67 | –

SMILES | IC50 [2] [nM] | IC50 [3] [nM] | inhibition [5] [%] | other results
CCCC[C@H](C(=O)N1CCC2(CCc3ccccc32)CC1)N1C(=O)N[C@H](CCCN=C(N)N)C1=O | – | – | 20 | inhibition [7]: 54%
Cc1ccc(N2CCN(C(=O)[C@@H](CC3CCCCC3)N3C(=O)N[C@H](CCCN=C(N)N)C3=O)CC2)c(C)c1 | 300 | 60 | – | Release [4]: 90%
CC(C)C[C@H](C(=O)N1CCC2(CCc3ccccc32)CC1)N1C(=O)N[C@H](CCCN=C(N)N)C1=O | 2000 | 450 | – | Release [4]: 10%
N=C(N)NCCC[C@H]1NC(=O)N([C@H](Cc2ccc(O)cc2)C(=O)N2CCC3(CCc4ccccc43)CC2)C1=O | – | 4000 | – | –
N=C(N)NCCCC[C@H]1NC(=O)N([C@H](CC2CCCCC2)C(=O)N2CCC3(CCc4ccccc43)CC2)C1=O | – | 300 | – | –
N=C(N)NCCC[C@H]1NC(=O)N([C@@H](Cc2ccccc2)C(=O)N2CCC3(CCc4ccccc43)CC2)C1=O | – | – | 3 | inhibition [1]: 15%
CCC[C@H](C(=O)N1CCC2(CCc3ccccc32)CC1)N1C(=O)N[C@H](CCCN=C(N)N)C1=O | – | 3000 | 63 | –
N=C(N)NCCC[C@H]1NC(=O)N([C@H](CC2CCCCC2)C(=O)N2CCC3(CC2)CC(=O)c2ccccc23)C1=O | – | 1500 | 58 | –
NCCCC[C@H]1NC(=O)N([C@H](CC2CCCCC2)C(=O)N2CCC3(CCc4ccccc43)CC2)C1=O | – | 4000 | – | –
N=C(N)NCCC[C@H]1NC(=O)N([C@H](Cc2c[nH]c3ccccc23)C(=O)N2CCC3(CCc4ccccc43)CC2)C1=O | 5000 | 450 | – | –
N=C(N)NCCC[C@H]1NC(=O)N([C@H](CC(=O)N2CCCCC2)C(=O)N2CCC3(CCc4ccccc43)CC2)C1=O | – | – | 26 | inhibition [1]: 52%
N=C(N)NCCC[C@H]1NC(=O)N([C@H](Cc2ccc(-c3ccccc3)cc2)C(=O)N2CCC3(CCc4ccccc43)CC2)C1=O | 2300 | – | – | IC50 [8]: 900 nM
N=C(N)NCCC[C@@H]1NC(=O)N([C@H](Cc2ccccc2)C(=O)N2CCC3(CCc4ccccc43)CC2)C1=O | – | 4000 | 39 | –
N=C(N)NCCC[C@H]1NC(=O)N([C@H](CC2CCCCC2)C(=O)N2CCC3(C=Cc4ccccc43)CC2)C1=O | 1500 | 300 | – | –
CC(=O)OCC1(c2ccccc2)CCN(C(=O)[C@@H](CC2CCCCC2)N2C(=O)N[C@H](CCCN=C(N)N)C2=O)CC1 | – | – | 35 | inhibition [1]: 48%
N=C(N)NCCC[C@H]1NC(=O)N(C(Cc2ccccc2)C(=O)N2CCC3(CCc4ccccc43)CC2)C1=O (stereo partly specified) | – | – | 60 | inhibition [1]: 78%
N=C(N)NCCC[C@H]1NC(=O)N([C@H](CC2CCC(C3CCCCC3)CC2)C(=O)N2CCC3(CCc4ccccc43)CC2)C1=O (stereo partly specified) | – | 5000 | 26 | –
Nc1ccc(C[C@H]2NC(=O)N([C@H](CC3CCCCC3)C(=O)N3CCC4(CCc5ccccc54)CC3)C2=O)cc1 | – | – | – | inhibition [1]: 75%
